Measurements from patent publication US20090012103A1, “SUBSTITUTED HETEROCYCLIC COMPOUNDS” (priority 2007, published 2009).

Molecular target: wild-type human cardiac sodium channel, hNav1.5 (Homo sapiens, UniProt Q14524)
Experiment: Late INa screening assay (late sodium current, PatchXpress whole cell patch clamp)
Format: cell-based
Details: compound at 10 μM; read-out: Late INa % blk

wild-type human cardiac sodium channel, hNav1.5, sequence (Q14524 whole entry): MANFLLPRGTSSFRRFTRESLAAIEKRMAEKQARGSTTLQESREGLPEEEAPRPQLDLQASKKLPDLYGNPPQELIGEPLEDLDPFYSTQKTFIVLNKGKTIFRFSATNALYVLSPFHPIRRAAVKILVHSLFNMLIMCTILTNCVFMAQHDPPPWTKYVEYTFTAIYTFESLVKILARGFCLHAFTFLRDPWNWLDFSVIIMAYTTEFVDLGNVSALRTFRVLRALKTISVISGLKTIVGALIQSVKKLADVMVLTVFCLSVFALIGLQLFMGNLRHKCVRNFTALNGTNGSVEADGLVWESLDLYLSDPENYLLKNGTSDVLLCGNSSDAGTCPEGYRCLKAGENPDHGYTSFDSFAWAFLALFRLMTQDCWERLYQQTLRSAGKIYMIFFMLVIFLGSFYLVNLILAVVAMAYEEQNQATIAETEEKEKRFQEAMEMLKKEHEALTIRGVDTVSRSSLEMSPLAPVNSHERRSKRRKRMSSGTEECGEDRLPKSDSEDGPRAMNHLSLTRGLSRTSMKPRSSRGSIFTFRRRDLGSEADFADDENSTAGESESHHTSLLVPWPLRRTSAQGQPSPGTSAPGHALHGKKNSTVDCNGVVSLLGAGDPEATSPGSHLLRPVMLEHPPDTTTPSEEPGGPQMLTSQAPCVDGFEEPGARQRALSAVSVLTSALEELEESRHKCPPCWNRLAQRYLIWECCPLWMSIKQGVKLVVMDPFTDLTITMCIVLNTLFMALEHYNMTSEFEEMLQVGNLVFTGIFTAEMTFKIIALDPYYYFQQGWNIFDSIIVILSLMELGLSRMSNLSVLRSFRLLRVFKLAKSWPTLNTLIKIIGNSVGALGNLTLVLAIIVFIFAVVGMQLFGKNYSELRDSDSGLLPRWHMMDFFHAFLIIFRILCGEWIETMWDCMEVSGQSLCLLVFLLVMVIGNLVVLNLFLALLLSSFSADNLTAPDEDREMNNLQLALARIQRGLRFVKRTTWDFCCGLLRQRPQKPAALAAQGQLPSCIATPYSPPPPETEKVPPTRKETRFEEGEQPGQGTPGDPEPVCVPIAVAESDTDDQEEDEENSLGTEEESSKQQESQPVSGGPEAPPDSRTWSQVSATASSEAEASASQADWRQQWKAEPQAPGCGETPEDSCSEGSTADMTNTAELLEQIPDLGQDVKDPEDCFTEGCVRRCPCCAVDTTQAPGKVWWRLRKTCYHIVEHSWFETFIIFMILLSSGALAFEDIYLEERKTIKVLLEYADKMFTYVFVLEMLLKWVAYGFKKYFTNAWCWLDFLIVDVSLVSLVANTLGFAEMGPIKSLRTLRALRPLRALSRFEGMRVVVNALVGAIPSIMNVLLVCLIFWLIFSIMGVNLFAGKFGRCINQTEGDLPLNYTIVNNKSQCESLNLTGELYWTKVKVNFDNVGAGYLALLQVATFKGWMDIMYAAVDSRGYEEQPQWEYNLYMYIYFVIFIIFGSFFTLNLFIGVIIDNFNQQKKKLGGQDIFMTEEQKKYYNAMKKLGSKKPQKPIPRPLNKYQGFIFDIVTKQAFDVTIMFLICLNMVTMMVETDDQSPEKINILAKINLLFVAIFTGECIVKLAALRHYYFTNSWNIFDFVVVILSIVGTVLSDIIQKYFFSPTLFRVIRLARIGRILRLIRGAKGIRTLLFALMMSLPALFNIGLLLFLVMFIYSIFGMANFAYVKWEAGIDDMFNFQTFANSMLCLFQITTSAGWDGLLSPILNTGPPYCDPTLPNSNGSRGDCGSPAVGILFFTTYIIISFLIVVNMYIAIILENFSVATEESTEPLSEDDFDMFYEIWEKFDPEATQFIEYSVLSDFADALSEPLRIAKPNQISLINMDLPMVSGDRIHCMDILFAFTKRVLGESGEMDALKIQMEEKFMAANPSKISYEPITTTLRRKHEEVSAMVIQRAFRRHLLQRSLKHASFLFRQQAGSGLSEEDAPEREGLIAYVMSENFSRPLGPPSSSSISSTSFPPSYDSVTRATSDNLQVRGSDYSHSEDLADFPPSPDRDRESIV

Structure (SMILES): CCOC(=O)C1=C(C)Nc2nnnn2C1c1ccccc1Oc1ccc(C(=O)O)cc1 (stereo not shown) [PT-291, 4-(2-(6-(ethoxycarbonyl)-5-methyl-4,7-dihydrotetrazolo[1,5-a]pyrimidin-7-yl)phenoxy)benzoic acid]
- inhibition at 10 µM: 15.2%

Structure (SMILES): CCOC(=O)C1=C(C)Nc2nnnn2C1c1sccc1-c1ccc(C(=O)O)cc1 (stereo not shown) [PT-292, 4-(2-(6-(ethoxycarbonyl)-5-methyl-4,7-dihydrotetrazolo[1,5-a]pyrimidin-7-yl)thiophen-3-yl)benzoic acid]
- inhibition at 10 µM: 18.7%

Structure (SMILES): CC1=C(C(=O)OCC2CC2)C(c2c(-c3ccc(C(=O)O)cc3)sc3ccccc23)n2nnnc2N1 (stereo not shown) [PT-293, 4-(3-(6-((cyclopropylmethoxy)carbonyl)-5-methyl-4,7-dihydrotetrazolo[1,5-a]pyrimidin-7-yl)benzo[b]thiophen-2-yl)benzoic acid]
- inhibition at 10 µM: 7.7%

Structure (SMILES): CCOC(=O)C1=C(C)Nc2nnnn2C1c1cccc(Oc2ccc(C(=O)O)cc2)c1 (stereo not shown) [PT-295, 4-(3-(6-(ethoxycarbonyl)-5-methyl-4,7-dihydrotetrazolo[1,5-a]pyrimidin-7-yl)phenoxy)benzoic acid]
- inhibition at 10 µM: 7%

Structure (SMILES): COC(=O)C1=C(C)Nc2nnnn2C1c1c(-c2ccc(C(=O)O)cc2)sc2ccccc12 (stereo not shown) [PT-296, 4-(3-(6-(methoxycarbonyl)-5-methyl-4,7-dihydrotetrazolo[1,5-a]pyrimidin-7-yl)benzo[b]thiophen-2-yl)benzoic acid]
- inhibition at 10 µM: 13.3%

Structure (SMILES): CC1=C(C(=O)N2CCN(c3ccc(C(=O)O)cc3)CC2)C(c2cccc3ccccc23)C2=C(CCCC2=O)N1 (stereo not shown) [PT-297, 4-(4-(2-methyl-4-(naphthalen-1-yl)-5-oxo-1,4,5,6,7,8-hexahydroquinoline-3-carbonyl)piperazin-1-yl)benzoic acid]
- inhibition at 10 µM: 4.9%

Structure (SMILES): CC1=C(C(=O)OCc2ccccc2)C(c2ccc(C(=O)O)cc2)n2nnnc2N1 (stereo not shown) [PT-299, 4-(6-(benzyloxycarbonyl)-5-methyl-4,7-dihydrotetrazolo[1,5-a]pyrimidin-7-yl)benzoic acid]
- inhibition at 10 µM: 6.7%

Structure (SMILES): CC1=C(C(=O)OCc2ccccc2)C(c2ccc(B(O)O)cc2)n2nnnc2N1 (stereo not shown) [PT-300, 4-(6-(benzyloxycarbonyl)-5-methyl-4,7-dihydrotetrazolo[1,5-a]pyrimidin-7-yl)phenylboronic acid]
- inhibition at 10 µM: 14.4%

Structure (SMILES): O=C1OCc2nc3[nH]ncc3c(-c3cccc4ccccc34)c21 [PT-301, 4-(naphthalen-1-yl)-1H-furo[3,4-e]pyrazolo[3,4-b]pyridin-5(7H)-one]
- inhibition at 10 µM: 21.6%

Structure (SMILES): O=C1OCc2nc3c(cnn3-c3ccccc3)c(-c3cccc4ccccc34)c21 [PT-302, 4-(naphthalen-1-yl)-1-phenyl-1H-furo[3,4-e]pyrazolo[3,4-b]pyridin-5(7H)-one]
- inhibition at 10 µM: 50.4%

Structure (SMILES): COc1cc(Cl)ccc1COC(=O)C1=C(C)Nc2nnnn2C1c1cccc2ccccc12 (stereo not shown) [PT-304, 4-chloro-2-methoxybenzyl 5-methyl-7-(naphthalen-1-yl)-4,7-dihydrotetrazolo[1,5-a]pyrimidine-6-carboxylate]
- inhibition at 10 µM: 63%

Structure (SMILES): COc1cc(Cl)ccc1COC(=O)C1=C(C)Nc2nnnn2C1c1ccccc1Br (stereo not shown) [PT-308, 4-chloro-2-methoxybenzyl 7-(2-bromophenyl)-5-methyl-4,7-dihydrotetrazolo[1,5-a]pyrimidine-6-carboxylate]
- inhibition at 10 µM: 53.4%

Structure (SMILES): CC1=C(C(=O)NNC(=O)Cc2ccccc2)C(c2cccc3ccccc23)n2nnnc2N1 (stereo not shown) [PT-309, 5-methyl-7-(naphthalen-1-yl)-N′-(2-phenylacetyl)-4,7-dihydrotetrazolo[1,5-a]pyrimidine-6-carbohydrazide]
- inhibition at 10 µM: 8.2%

Structure (SMILES): CC1=C(C(=O)NCCc2ccccc2)C(c2cccc3ccccc23)n2nnnc2N1 (stereo not shown) [PT-310, 5-methyl-7-(naphthalen-1-yl)-N-phenethyl-4,7-dihydrotetrazolo[1,5-a]pyrimidine-6-carboxamide]
- inhibition at 10 µM: 23.6%

Structure (SMILES): CC1=C(C(=O)OCc2ccccc2)C(c2ccc(N(C)C)c3ccccc23)n2ncc(C(=O)O)c2N1 (stereo not shown) [PT-311, 6-(benzyloxycarbonyl)-7-(4-(dimethylamino)naphthalen-1-yl)-5-methyl-4,7-dihydropyrazolo[1,5-a]pyrimidine-3-carboxylic acid]
- inhibition at 10 µM: -7.5%

Structure (SMILES): COc1ccc(C2C(C(=O)OCc3ccccc3)=C(C)Nc3c(C(=O)O)cnn32)c2ccccc12 (stereo not shown) [PT-312, 6-(benzyloxycarbonyl)-7-(4-methoxynaphthalen-1-yl)-5-methyl-4,7-dihydropyrazolo[1,5-a]pyrimidine-3-carboxylic acid]
- inhibition at 10 µM: 5.2%

Structure (SMILES): CC1=C(C(=O)OCc2ccccc2)C(c2ccccc2)c2ccccc2N1 (stereo not shown) [PT-321, benzyl 2-methyl-4-phenyl-1,4-dihydroquinoline-3-carboxylate]
- inhibition at 10 µM: 48.3%

Structure (SMILES): CC1=C(C(=O)OCc2ccccc2)C(c2ccccc2)C2=C(CCCC2=O)N1 (stereo not shown) [PT-323, benzyl 2-methyl-5-oxo-4-phenyl-1,4,5,6,7,8-hexahydroquinoline-3-carboxylate]
- inhibition at 10 µM: 48.9%

Structure (SMILES): CC1=C(C(=O)OCc2ccccc2)C(c2cccc3ccccc23)n2nnnc2N1Cc1nnn[nH]1 (stereo not shown) [PT-326, benzyl 4-((1H-tetrazol-5-yl)methyl)-5-methyl-7-(naphthalen-1-yl)-4,7-dihydrotetrazolo[1,5-a]pyrimidine-6-carboxylate]
- inhibition at 10 µM: 39.9%

Structure (SMILES): CC1=C(C(=O)OCc2ccccc2)C(c2ccccc2OCc2ccccc2)C2=C(CCCC2=O)N1 (stereo not shown) [PT-328, benzyl 4-(2-(benzyloxy)phenyl)-2-methyl-5-oxo-1,4,5,6,7,8-hexahydroquinoline-3-carboxylate]
- inhibition at 10 µM: 58.1%

Structure (SMILES): CC1=C(C(=O)OCc2ccccc2)C(c2ccccc2Br)C2=C(CCCC2=O)N1 (stereo not shown) [PT-329, benzyl 4-(2-bromophenyl)-2-methyl-5-oxo-1,4,5,6,7,8-hexahydroquinoline-3-carboxylate]
- inhibition at 10 µM: 54.9%

Structure (SMILES): CC1=C(C(=O)OCc2ccccc2)C(c2ccccc2Br)c2cn[nH]c2N1 (stereo not shown) [PT-330, benzyl 4-(2-bromophenyl)-6-methyl-4,7-dihydro-1H-pyrazolo[3,4-b]pyridine-5-carboxylate]
- inhibition at 10 µM: 21.2%

Structure (SMILES): CCOC(=O)CN1C(C)=C(C(=O)OCc2ccccc2)C(c2cccc3ccccc23)n2nnnc21 (stereo not shown) [PT-331, benzyl 4-(2-ethoxy-2-oxoethyl)-5-methyl-7-(naphthalen-1-yl)-4,7-dihydrotetrazolo[1,5-a]pyrimidine-6-carboxylate]
- inhibition at 10 µM: 29.6%

Structure (SMILES): COc1ccc(C2C(C(=O)OCc3ccccc3)=C(C)Nc3[nH]ncc32)c2ccccc12 (stereo not shown) [PT-333, benzyl 4-(4-methoxynaphthalen-1-yl)-6-methyl-4,7-dihydro-1H-pyrazolo[3,4-b]pyridine-5-carboxylate]
- inhibition at 10 µM: 13.1%

Structure (SMILES): CC1=C(C(=O)OCc2ccccc2)C(c2c3ccccc3cc3ccccc23)C2=C(CCCC2=O)N1 (stereo not shown) [PT-334, benzyl 4-(anthracen-9-yl)-2-methyl-5-oxo-1,4,5,6,7,8-hexahydroquinoline-3-carboxylate]
- inhibition at 10 µM: 29.9%

Structure (SMILES): CC1=C(C(=O)OCc2ccccc2)C(c2cc3ccccc3s2)C2=C(CCCC2=O)N1 (stereo not shown) [PT-335, benzyl 4-(benzo[b]thiophen-2-yl)-2-methyl-5-oxo-1,4,5,6,7,8-hexahydroquinoline-3-carboxylate]
- inhibition at 10 µM: 58.1%

Structure (SMILES): CC1=C(C(=O)OCc2ccccc2)C(c2ccccc2-c2ccccc2)C2=C(CCCC2=O)N1 (stereo not shown) [PT-336, benzyl 4-(biphenyl-2-yl)-2-methyl-5-oxo-1,4,5,6,7,8-hexahydroquinoline-3-carboxylate]
- inhibition at 10 µM: 60.1%

Structure (SMILES): CC1=C(C(=O)OCc2ccccc2)C(c2cccc3ccccc23)n2nnnc2N1CC#N (stereo not shown) [PT-337, benzyl 4-(cyanomethyl)-5-methyl-7-(naphthalen-1-yl)-4,7-dihydrotetrazolo[1,5-a]pyrimidine-6-carboxylate]
- inhibition at 10 µM: 30.2%

Structure (SMILES): CC1=C(C(=O)OCc2ccccc2)C(c2cnc(N3CCN(C)CC3)s2)n2nnnc2N1 (stereo not shown) [PT-341, benzyl 5-methyl-7-(2-(4-methylpiperazin-1-yl)thiazol-5-yl)-4,7-dihydrotetrazolo[1,5-a]pyrimidine-6-carboxylate]
- inhibition at 10 µM: 23.3%

Structure (SMILES): COc1cc(OC)c(C2C(C(=O)OCc3ccccc3)=C(C)Nc3nnnn32)c(OC)c1 (stereo not shown) [PT-343, benzyl 5-methyl-7-(2,4,6-trimethoxyphenyl)-4,7-dihydrotetrazolo[1,5-a]pyrimidine-6-carboxylate]
- inhibition at 10 µM: 34.4%

Structure (SMILES): CC1=C(C(=O)OCc2ccccc2)C(c2ccccc2-c2ccccc2C)n2nnnc2N1 (stereo not shown) [PT-344, benzyl 5-methyl-7-(2′-methylbiphenyl-2-yl)-4,7-dihydrotetrazolo[1,5-a]pyrimidine-6-carboxylate]
- inhibition at 10 µM: 44.6%

Structure (SMILES): CC1=C(C(=O)OCc2ccccc2)C(c2ccccc2N2CCOCC2)n2nnnc2N1 (stereo not shown) [PT-345, benzyl 5-methyl-7-(2-morpholinophenyl)-4,7-dihydrotetrazolo[1,5-a]pyrimidine-6-carboxylate]
- inhibition at 10 µM: 36.7%

Structure (SMILES): CC1=C(C(=O)OCc2ccccc2)C(c2cnc(N3CCOCC3)s2)n2nnnc2N1 (stereo not shown) [PT-346, benzyl 5-methyl-7-(2-morpholinothiazol-5-yl)-4,7-dihydrotetrazolo[1,5-a]pyrimidine-6-carboxylate]
- inhibition at 10 µM: 23%

Structure (SMILES): CC1=C(C(=O)OCc2ccccc2)C(c2ccc(C(F)(F)F)cc2[N+](=O)[O-])n2nnnc2N1 (stereo not shown) [PT-347, benzyl 5-methyl-7-(2-nitro-4-(trifluoromethyl)phenyl)-4,7-dihydrotetrazolo[1,5-a]pyrimidine-6-carboxylate]
- inhibition at 10 µM: 5.1%

Structure (SMILES): CC1=C(C(=O)OCc2ccccc2)C(c2ccccc2-c2cccc(C(F)(F)F)c2)n2nnnc2N1 (stereo not shown) [PT-349, benzyl 5-methyl-7-(3′-(trifluoromethyl)biphenyl-2-yl)-4,7-dihydrotetrazolo[1,5-a]pyrimidine-6-carboxylate]
- inhibition at 10 µM: 77.3%

Structure (SMILES): CC1=C(C(=O)OCc2ccccc2)C(c2ccccc2-c2cccc(C)c2)n2nnnc2N1 (stereo not shown) [PT-350, benzyl 5-methyl-7-(3′-methylbiphenyl-2-yl)-4,7-dihydrotetrazolo[1,5-a]pyrimidine-6-carboxylate]
- inhibition at 10 µM: 63.2%

Structure (SMILES): CC1=C(C(=O)OCc2ccccc2)C(c2ccc(S(C)(=O)=O)cc2[N+](=O)[O-])n2nnnc2N1 (stereo not shown) [PT-353, benzyl 5-methyl-7-(4-(methylsulfonyl)-2-nitrophenyl)-4,7-dihydrotetrazolo[1,5-a]pyrimidine-6-carboxylate]
- inhibition at 10 µM: 5.8%
